“And” between values parts separate entries of the source, which are not always exact repeats. Equal values may be shown once.
Assay: MALDI-FTICR imaging quantitation of DFMO in whole-body sections of Th-MYCN mice
Format: in vivo, mouse
Settings: for concentration at 96 h: male, Th-MYCN, mouse
[1] = COMBO (1% DFMO + AMXT 1501 2.5 mg/kg SC), mice 284, 286, 96 h, 2.5 mg/kg
[2] = DFMO alone 1% in drinking water, mice 049, 082, 96 h

Procedure: Male Th-MYCN mice, approximately 5-6 weeks of age, with spontaneous neuroblastoma tumor development commenced treatment according to Table 6.1 when tumors were approximately 5 mm in size. […] Time point: three treatments, cull 24 hours after last treatment in the morning.
Sample Preparation. Animals were euthanized on the morning of the 4th day, after three days of treatment and shaved, and then the carcasses were frozen. Tissues stored at −80° C. were placed inside the cryostat. The temperature of the cryostat was maintained around −20° C. and −40° C. 20-am tissue sections in the sagittal plane going through the left eye were obtained for each carcass. Tissue sections were mounted directly on indium tin oxide (ITO) slides.
Tissue sections on ITO slides were placed in a desiccator for 15 minutes before matrix deposition. An image of the slides was then acquired with a scanner to synchronize positions of the tissue sections with the target of the laser.
Dilution series of the test items were prepared in water from the stock solutions. […] A spot of pure solvent was added as a negative control. Slides were then placed in a desiccator for 15 minutes before MALDI matrix deposition. The control liver tissue consisted of a liver homogenate spiked with an olanzapine standard at 40 g/g of tissue. Sections of the liver homogenate were prepared and added on each ITO slide in order to monitor the signal of the FTICR through the different acquisitions and thus validate the comparison between slides.
For AMXT 1501, 2,5-dihydroxybenzoic acid (DHB) at 40 mg/ml in 1:1 MeOH/H2O with 1% trifluoroacetic acid (TFA) and 25 nM of ^13C4-AMXT 1501 was sprayed on the samples with an automatic sprayer (TM-Sprayer, HTX-Imaging).
The mass spectrometry imaging (MSI) acquisitions were performed using the parameters in Table 6.2 with a data reduction parameter set at 95%. MSI data were acquired and analyzed with FlexImaging 4.1 (Bruker Daltonics), Data Analysis 4.0 (Bruker Daltonics) and Multimaging™ 1.2.2 (ImaBioTech).
Intensity scales representing the molecular signal were adjusted for each image to discriminate the noise from the molecular signal but also to give the best visualization of the signal across the sections. […] Convolution step was performed on the original images using a normalized uniform kernel, which averages the values around a position. The kernel size was manually optimized for the analysis, minimizing the background noise. Based on the MSI data set on the tissue sections and the dilution series, the quantitation of the test items was performed with the IS approach. A correlation between the calibration curve and the signal obtained on the tissues was performed in order to determine the concentration of the test items per histological structure in g/g of tissue and μM.

SMILES: NCCCC(N)(C(=O)O)C(F)F (stereo not drawn) [DFMO, difluoromethylornithine]
- DFMO in Intestine wall (COMBO (1% DFMO + AMXT 1501 2.5 mg/kg SC), mice 284, 286, 96 h): 6156 µg/g
- DFMO in Cardiac blood [1]: 20.9 µg/g
- DFMO in Eye [1]: 49.3 µg/g
- DFMO in Intestine contents [1]: 8702 µg/g and 11264 µg/g
- DFMO in Liver [1]: 33.0 µg/g
- DFMO in Lung [1]: 43.1 µg/g
- DFMO in Myocardium [1]: 26.2 µg/g
- DFMO in Cardiac blood [2]: 16.5 µg/g
- DFMO in Eye [2]: 28.8 µg/g
- DFMO in Intestine contents [2]: 3487 µg/g and 2267 µg/g
- DFMO in Kidney [2]: 133 µg/g
- DFMO in Liver [2]: 28.5 µg/g
- DFMO in Lung [2]: 24.8 µg/g
- DFMO concentration in tumor (DFMO only treatment group): 35 μg/g and 192 μM
- tumor DFMO levels (MYCN mice after overnight drinking of 1% DFMO orally): 165 to 192 µM
- DFMO concentration in tumor (combination treatment group): 30 μg/g and 165 μM
- tumor DFMO concentration versus Ki (combination treatment group): 4.2 times
- concentration at 96 h (brown fat, oral, 40 mg/day, DFMO in brown fat): ~25000 ng/g
- concentration at 96 h (brown fat, oral, 1 % in drinking water, DFMO in Brown fat, DFMO alone 1% in drinking water, mice 049, 082, 96 h): 22600 ng/g
- concentration at 96 h (brown fat, sc, 2.5 mg/kg, DFMO in Brown fat, COMBO (1% DFMO + AMXT 1501 2.5 mg/kg SC), mice 284, 286, 96 h): 27500 ng/g
- concentration at 96 h (cardiac blood, oral, 40 mg/day, DFMO in cardiac blood, combination and single administration regimens): 16000 to 35000 ng/g
- concentration at 96 h (cardiac blood, oral, 1 % in drinking water, DFMO in Cardiac blood, DFMO alone 1% in drinking water, mice 049, 082, 96 h): 27800 ng/g
- concentration at 96 h (cardiac blood, sc, 2.5 mg/kg, DFMO in Cardiac blood, COMBO (1% DFMO + AMXT 1501 2.5 mg/kg SC), mice 284, 286, 96 h): 35400 ng/g
- concentration at 96 h (eye, oral, 1 % in drinking water, DFMO in Eye, DFMO alone 1% in drinking water, mice 049, 082, 96 h): 33000 ng/g
- concentration at 96 h (eye, sc, 2.5 mg/kg, DFMO in Eye, COMBO (1% DFMO + AMXT 1501 2.5 mg/kg SC), mice 284, 286, 96 h): 92100 ng/g
- concentration at 96 h (intestine wall, oral, 1 % in drinking water, DFMO in Intestine wall, DFMO alone 1% in drinking water, mice 049, 082, 96 h): 803000 ng/g
- concentration at 96 h (kidney, oral, 1 % in drinking water, DFMO in Kidney, DFMO alone 1% in drinking water, mice 049, 082, 96 h): 77600 ng/g
- concentration at 96 h (liver, oral, 1 % in drinking water, DFMO in Liver, DFMO alone 1% in drinking water, mice 049, 082, 96 h): 36100 ng/g
- concentration at 96 h (liver, sc, 2.5 mg/kg, DFMO in Liver, COMBO (1% DFMO + AMXT 1501 2.5 mg/kg SC), mice 284, 286, 96 h): 44700 ng/g
- concentration at 96 h (lung, oral, 1 % in drinking water, DFMO in Lung, DFMO alone 1% in drinking water, mice 049, 082, 96 h): 48700 ng/g
- concentration at 96 h (lung, sc, 2.5 mg/kg, DFMO in Lung, COMBO (1% DFMO + AMXT 1501 2.5 mg/kg SC), mice 284, 286, 96 h): 64700 ng/g
- concentration at 96 h (myocardium, oral, 1 % in drinking water, DFMO in Myocardium, DFMO alone 1% in drinking water, mice 049, 082, 96 h): 10000 ng/g
- concentration at 96 h (myocardium, sc, 2.5 mg/kg, DFMO in Myocardium, COMBO (1% DFMO + AMXT 1501 2.5 mg/kg SC), mice 284, 286, 96 h): 28500 ng/g
- concentration at 96 h (oral, 40 mg/day, DFMO in eye, kidney, liver, lung, testis and thymus, range from testis to eye, both treatments): 14000 to 92000 ng/g
- concentration at 96 h (pancreas, sc, 2.5 mg/kg, DFMO in Pancreas, COMBO (1% DFMO + AMXT 1501 2.5 mg/kg SC), mice 284, 286, 96 h): 83000 ng/g
- concentration at 96 h (spleen, sc, 2.5 mg/kg, DFMO in Spleen, COMBO (1% DFMO + AMXT 1501 2.5 mg/kg SC), mice 284, 286, 96 h): 83600 ng/g
- concentration at 96 h (stomach contents, sc, 2.5 mg/kg, DFMO in Stomach contents, COMBO (1% DFMO + AMXT 1501 2.5 mg/kg SC), mice 284, 286, 96 h): 111000 ng/g
- concentration at 96 h (stomach wall, oral, 1 % in drinking water, DFMO in Stomach wall, DFMO alone 1% in drinking water, mice 049, 082, 96 h): 216000 ng/g
- concentration at 96 h (stomach wall, sc, 2.5 mg/kg, DFMO in Stomach wall, COMBO (1% DFMO + AMXT 1501 2.5 mg/kg SC), mice 284, 286, 96 h): 44500 ng/g
- concentration at 96 h (testis, oral, 1 % in drinking water, DFMO in Testis, DFMO alone 1% in drinking water, mice 049, 082, 96 h): 14500 ng/g
- concentration at 96 h (testis, sc, 2.5 mg/kg, DFMO in Testis, COMBO (1% DFMO + AMXT 1501 2.5 mg/kg SC), mice 284, 286, 96 h): 48200 ng/g
- concentration at 96 h (thymus, oral, 1 % in drinking water, DFMO in Thymus, DFMO alone 1% in drinking water, mice 049, 082, 96 h): 20900 ng/g
- concentration at 96 h (thymus, sc, 2.5 mg/kg, DFMO in Thymus, COMBO (1% DFMO + AMXT 1501 2.5 mg/kg SC), mice 284, 286, 96 h): 26700 ng/g
- concentration at 96 h (tumor, oral, 1 % in drinking water, DFMO in Tumor, DFMO alone 1% in drinking water, mice 049, 082, 96 h): 35100 ng/g
- concentration at 96 h (tumor, sc, 2.5 mg/kg, DFMO in Tumor, COMBO (1% DFMO + AMXT 1501 2.5 mg/kg SC), mice 284, 286, 96 h): 30400 ng/g

From patent publication US20230321012A1 (priority 2021, published 2023)
